According to PubChem BioAssay AID1845208 (Molecular Pharmacology Branch, DTP, NCI, 2023):

Test system: NCI-H196 SCLC complex tumor spheroid viability
Assay: Anticancer human tumor NCI-H196 cell line growth inhibition;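 note: spheroids exposed to compounds for 7 days before readout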;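 for viability, T/C: 100% = DMSO vehicle control wells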
Details: for IC50: curve of first compound; for viability, T/C: stronger effect = lower value
Excerpt: Multicellular complex tumor spheroid response to DNA repair inhibitors in combination with DNA-damaging drugs
This study explores the anticancer activities of DNA-damaging drugs and inhibitors of DNA damage repair, both as single agents and in combinations. Complex tumor spheroids comprised of malignant cells, endothelial cells and mesenchymal stem cells served as an in vitro model for human solid tumors. This model system incorporates physiologically relevant features and patient-derived or established malignant cell lines with clinically relevant genetic alterations from many tumor types. Twenty-six patient-derived or established malignant cell lines were evaluated representing sarcoma, melanoma, small cell lung cancer (SCLC), non-small cell lung cancer (NSCLC), as well as bladder, ovarian and pancreatic cancers. The concentration ranges selected for each drug and investigational agent were based upon clinically achievable concentrations if the clinical Cmax of the agent was known.
Compounds. The drugs and compounds olaparib (NSC753686), talazoparib (NSC767125), berzosertib (NSC777718), elimusertib (NSC800525), nedisertib (NSC802822), VX-984 (NSC792969), AZD-1390 (NSC803789), temozolomide (NSC362856), topotecan (NSC609699), trabectedin (NSC813783), staurosporine (NSC755774), and gemcitabine (NSC613327) were obtained from the National Cancer Institute (NCI) Developmental Therapeutics Program Chemical Repository. The FDA-approved anticancer drug set is available from the Developmental Therapeutics Program at https://dtp.cancer.gov/organization/dscb/obtaining/available_plates.htm. […] The stock solutions were prepared in dimethyl sulfoxide (DMSO, Sigma-Aldrich, St. Louis, MO, cat. D2650) at 400-fold the tested concentration and stored at -70 degrees C. Prior to their use, the stock solutions were diluted in fresh medium and the final DMSO concentration in the assay was 0.25% (v/v). All drugs and investigational agents were tested over a range starting from a high concentration at or near the clinical Cmax and decreasing in half-log increments. If the clinical Cmax for an agent had not been determined, the highest concentration tested was 10 microM.
Cell Lines. The patient-derived cancer cell (PDC) lines: 156681-154-R-J1-PDC, 283228-195-R-J1-PDC, 287954-098-R-J1-PDC, 292921-168-R-J2-PDC, 349418-098-R-PDC, 425362-245-T-J1-PDC, 556581-035-R-J1-PDC, and BL0293-F563-PDC were received from the NCI Patient-Derived Models Repository (PDMR, https://pdmr.cancer.gov). The established cell lines HS-SY-2 (RRID:CVCL_8719), MPNST, and SYO-1 (RRID:CVCL_7146) were obtained from the Sloan Kettering Institute. The alveolar soft parts sarcoma cell line ASPS-1 (RRID:CVCL_S738) was established at the NCI and grown from internal seed stocks. The following established cell lines were purchased from the American Type Culture Collection (ATCC, Manassas, VA): G-401 (ATCC, cat. CRL-1441, RRID:CVCL_0270), SW982 (ATCC, cat. HTB-93, RRID:CVCL_1734), VA-ES-BJ (ATCC, cat. CRL-2138, RRID:CVCL_1785), NCI-H719 (ATCC, cat. CRL-5837, RRID:CVCL_1582), NCI-H196 (ATCC, cat. CRL-5823, RRID:CVCL_1509), NCI-H841 (ATCC, cat. CRL-5845, RRID:CVCL_1595), NCI-H1618 (ATCC, cat. CRL-5879, RRID:CVCL_1480), NCI-H1876 (ATCC, cat. CRL-5902, RRID:CVCL_1503), DMS 114 (ATCC, cat. CRL-2066; RRID:CVCL_1174), NCI-H211 (ATCC, cat. CRL-5824; RRID:CVCL_1529), and SW 1271 (ATCC, cat. CRL-2177, RRID:CVCL_1716). The small cell lung cancer cell line COR-L88 was purchased from Sigma-Aldrich (cat. 92031917-1VL, RRID:CVCL_1141). The non-small cell lung cancer cell lines NCI-H226 (RRID:CVCL_1544) and NCI-H322M (RRID:CVCL_1557) were established at the NCI and grown from internal seed stocks. Pooled donor human umbilical vein endothelial cells (HUVEC, Lonza, cat. CC-2519) and human mesenchymal stem cells (hMSC, Lonza, cat. PT-2501) were purchased from Lonza (Walkersville, MD).
Cell Culture. All cells were maintained in an incubator at 37 degrees C and 5% CO2 with 95% humidity. […]

[1] = second compound 30 pM, first compound 0.0316 µM
[2] = second compound 30 pM, first compound 0.1 µM
[3] = second compound 30 pM, first compound 0.316 µM
[4] = second compound 30 pM, first compound 1 µM
[5] = second compound 30 pM, first compound 3.16 µM
[6] = second compound 30 pM, first compound 10 µM
[7] = second compound 94.9 pM, first compound 0.0316 µM
[8] = second compound 94.9 pM, first compound 0.1 µM
[9] = second compound 94.9 pM, first compound 0.316 µM
[10] = second compound 94.9 pM, first compound 1 µM
[11] = second compound 94.9 pM, first compound 3.16 µM
[12] = second compound 94.9 pM, first compound 10 µM
[13] = second compound 0.0003 µM, first compound 0.0316 µM
[14] = second compound 0.0003 µM, first compound 0.1 µM
[15] = second compound 0.0003 µM, first compound 0.316 µM
[16] = second compound 0.0003 µM, first compound 1 µM
[17] = second compound 0.0003 µM, first compound 3.16 µM
[18] = second compound 0.0003 µM, first compound 10 µM
[19] = second compound 0.000949 µM, first compound 0.0316 µM
[20] = second compound 0.000949 µM, first compound 0.1 µM
[21] = second compound 0.000949 µM, first compound 0.316 µM
[22] = second compound 0.000949 µM, first compound 1 µM
[23] = second compound 0.000949 µM, first compound 3.16 µM
[24] = second compound 0.000949 µM, first compound 10 µM
[25] = second compound 0.003 µM, first compound 0.0316 µM
[26] = second compound 0.003 µM, first compound 0.1 µM
[27] = second compound 0.003 µM, first compound 0.316 µM
[28] = second compound 0.003 µM, first compound 1 µM
[29] = second compound 0.003 µM, first compound 3.16 µM
[30] = second compound 0.003 µM, first compound 10 µM

CC1COCCN1c1cc(-c2ccnn2C)c2ccnc(-c3ccn[nH]3)c2n1 (stereo not given) + COc1cc2c(cc1O)CCNC21CSC2c3c(OC(C)=O)c(C)c4c(c3C(COC1=O)N1C(O)C3Cc5cc(C)c(OC)c(O)c5C(C21)N3C)OCO4
IC50 (second compound 30 pM): 4.19 µM | IC50 (second compound 94.9 pM): 3.43 µM | IC50 (second compound 0.0003 µM): 2.5 µM | IC50 (second compound 0.000949 µM): 0.711 µM | IC50 (second compound 0.003 µM): < 0.0316 µM | viability, T/C [1]: 90.5% | viability, T/C [2]: 74.5% | viability, T/C [3]: 67.2% | viability, T/C [4]: 56.7% | viability, T/C [5]: 51.8% | viability, T/C [6]: 46.3% | viability, T/C [7]: 89.1% | viability, T/C [8]: 73.8% | viability, T/C [9]: 67% | viability, T/C [10]: 58% | viability, T/C [11]: 50.8% | viability, T/C [12]: 44.5% | viability, T/C [13]: 81.8% | viability, T/C [14]: 67.1% | viability, T/C [15]: 64% | viability, T/C [16]: 59.2% | viability, T/C [17]: 45.9% | viability, T/C [18]: 42.5% | viability, T/C [19]: 72.2% | viability, T/C [20]: 64% | viability, T/C [21]: 56.3% | viability, T/C [22]: 51.7% | viability, T/C [23]: 31.9% | viability, T/C [24]: 32.6% | viability, T/C [25]: 9.26% | viability, T/C [26]: 6.28% | viability, T/C [27]: 10.1% | viability, T/C [28]: 3.62% | viability, T/C [29]: 0.78% | viability, T/C [30]: 0.39%

Cn1ncnc1[C@H]1c2n[nH]c(=O)c3cc(F)cc(c23)N[C@@H]1c1ccc(F)cc1 + Cn1nnc2c(C(N)=O)ncn2c1=O
IC50 (second compound 1 µM): > 3 µM | IC50 (second compound 3.16 µM): > 3 µM | IC50 (second compound 10 µM): > 3 µM | IC50 (second compound 31.6 µM): > 3 µM | IC50 (second compound 100 µM): > 3 µM | viability, T/C (second compound 1 µM, first compound 0.00949 µM): 103% | viability, T/C (second compound 1 µM, first compound 0.03 µM): 92% | viability, T/C (second compound 1 µM, first compound 0.0949 µM): 99.5% | viability, T/C (second compound 1 µM, first compound 0.3 µM): 95.5% | viability, T/C (second compound 1 µM, first compound 0.949 µM): 86.6% | viability, T/C (second compound 1 µM, first compound 3 µM): 94% | viability, T/C (second compound 3.16 µM, first compound 0.00949 µM): 105% | viability, T/C (second compound 3.16 µM, first compound 0.03 µM): 105% | viability, T/C (second compound 3.16 µM, first compound 0.0949 µM): 104% | viability, T/C (second compound 3.16 µM, first compound 0.3 µM): 103% | viability, T/C (second compound 3.16 µM, first compound 0.949 µM): 88.9% | viability, T/C (second compound 3.16 µM, first compound 3 µM): 99.5% | viability, T/C (second compound 10 µM, first compound 0.00949 µM): 104% | viability, T/C (second compound 10 µM, first compound 0.03 µM): 100% | viability, T/C (second compound 10 µM, first compound 0.0949 µM): 104% | viability, T/C (second compound 10 µM, first compound 0.3 µM): 90.9% | viability, T/C (second compound 10 µM, first compound 0.949 µM): 110% | viability, T/C (second compound 10 µM, first compound 3 µM): 89.2% | viability, T/C (second compound 31.6 µM, first compound 0.00949 µM): 104% | viability, T/C (second compound 31.6 µM, first compound 0.03 µM): 91.6% | viability, T/C (second compound 31.6 µM, first compound 0.0949 µM): 94.8% | viability, T/C (second compound 31.6 µM, first compound 0.3 µM): 93.2% | viability, T/C (second compound 31.6 µM, first compound 0.949 µM): 100% | viability, T/C (second compound 31.6 µM, first compound 3 µM): 91.3% | viability, T/C (second compound 100 µM, first compound 0.00949 µM): 102% | viability, T/C (second compound 100 µM, first compound 0.03 µM): 94.5% | viability, T/C (second compound 100 µM, first compound 0.0949 µM): 94.5% | viability, T/C (second compound 100 µM, first compound 0.3 µM): 94.8% | viability, T/C (second compound 100 µM, first compound 0.949 µM): 99% | viability, T/C (second compound 100 µM, first compound 3 µM): 89.5%

COc1cc(C)[nH]c(=O)c1CN1CCc2c(Cl)cc(C(OC)C3COC3)c(Cl)c2C1=O (stereo not given) + COc1cc2c(cc1O)CCNC21CSC2c3c(OC(C)=O)c(C)c4c(c3C(COC1=O)N1C(O)C3Cc5cc(C)c(OC)c(O)c5C(C21)N3C)OCO4
IC50 (second compound 30 pM): > 10 µM | IC50 (second compound 94.9 pM): > 10 µM | IC50 (second compound 0.0003 µM): > 10 µM | IC50 (second compound 0.000949 µM): > 10 µM | IC50 (second compound 0.003 µM): < 0.0316 µM | viability, T/C [1]: 104% | viability, T/C [2]: 101% | viability, T/C [3]: 95.8% | viability, T/C [4]: 101% | viability, T/C [5]: 97.8% | viability, T/C [6]: 98.4% | viability, T/C [7]: 107% | viability, T/C [8]: 96.5% | viability, T/C [9]: 103% | viability, T/C [10]: 95.4% | viability, T/C [11]: 99.1% | viability, T/C [12]: 104% | viability, T/C [13]: 100% | viability, T/C [14]: 105% | viability, T/C [15]: 98.8% | viability, T/C [16]: 97.1% | viability, T/C [17]: 94.6% | viability, T/C [18]: 97.8% | viability, T/C [19]: 83.7% | viability, T/C [20]: 80.3% | viability, T/C [21]: 83% | viability, T/C [22]: 80.9% | viability, T/C [23]: 87% | viability, T/C [24]: 77.9% | viability, T/C [25]: 18.9% | viability, T/C [26]: 5.38% | viability, T/C [27]: 7.56% | viability, T/C [28]: 12.5% | viability, T/C [29]: 5.22% | viability, T/C [30]: 2.69%
